# From patent US20160271263A1 (Novo Nordisk A/S, priority 2010, published 2016)
# Numbered stars: 1 amine (or outer) side, 2 acyl side, 3 side chain; on linkers, the order of the positions; unused ones are H or OH. Side chains are listed from the residue outwards. Peptide text beside a SMILES is read from it. * marks the point of attachment. C18 diacid = O=C(O)CCCCCCCCCCCCCCCCC(=O)*; γGlu = O=C(O)[C@H](CCC(=O)[*:2])N[*:1]; AEEA = NCCOCCOCC(=O)O
# Target: glucagon receptor (Homo sapiens, UniProt P47871)
# Test: cell-based
# Description: The cells (14000 per well) were incubated (37° C., 5% CO2) overnight in 384-well plates. Next day the cells were loaded with a calcium responsive dye that only distributed into the cytoplasm. Probenecid, an inhibitor of the organic anion transporter, was added to prevent the dye from leaving the cell. A PDE inhibitor was added to prevent formatted cAMP from being degraded. […] End point data were collected after 6 minutes. An increase in intracellular cAMP was proportional to an increased in calcium concentrations in the cytoplasm. […] EC50-values were calculated in Prism5.
# Sequence of glucagon receptor (P47871 26-477): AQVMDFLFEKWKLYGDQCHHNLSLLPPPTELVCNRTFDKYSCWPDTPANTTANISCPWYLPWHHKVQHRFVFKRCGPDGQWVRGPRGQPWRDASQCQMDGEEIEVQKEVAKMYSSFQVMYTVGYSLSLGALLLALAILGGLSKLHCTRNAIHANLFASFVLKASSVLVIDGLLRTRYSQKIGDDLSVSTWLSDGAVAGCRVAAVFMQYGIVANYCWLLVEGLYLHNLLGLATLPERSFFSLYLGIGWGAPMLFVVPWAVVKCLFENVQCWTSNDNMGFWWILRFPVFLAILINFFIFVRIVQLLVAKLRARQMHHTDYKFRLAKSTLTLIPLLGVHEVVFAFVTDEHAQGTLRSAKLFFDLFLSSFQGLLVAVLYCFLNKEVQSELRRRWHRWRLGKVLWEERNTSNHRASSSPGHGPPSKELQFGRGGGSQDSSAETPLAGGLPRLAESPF
row,SMILES,EC50
1,"CC(C)C[C@H](NC(=O)[C@H](Cc1ccc(O)cc1)NC(=O)[C@H](CCCCN)NC(=O)[C@H](CO)NC(=O)[C@H](Cc1ccc(O)cc1)NC(=O)[C@H](CC(=O)O)NC(=O)[C@H](CO)NC(=O)[C@@H](NC(=O)[C@H](Cc1ccccc1)NC(=O)[C@@H](NC(=O)CNC(=O)[C@H](CCC(N)=O)NC(=O)[C@H](CO)NC(=O)[C@@H](N)Cc1c[nH]cn1)[C@@H](C)O)[C@@H](C)O)C(=O)N[C@@H](CC(=O)O)C(=O)N[C@@H](CO)C(=O)N[C@@H](CCCNC(=N)N)C(=O)N[C@@H](CCCNC(=N)N)C(=O)N[C@@H](C)C(=O)N[C@@H](CCC(N)=O)C(=O)N[C@@H](CC(=O)O)C(=O)N[C@@H](Cc1ccccc1)C(=O)N[C@H](C(=O)N[C@@H](CCC(N)=O)C(=O)N[C@@H](Cc1c[nH]c2ccccc12)C(=O)N[C@@H](CC(C)C)C(=O)N[C@@H](CC(C)C)C(=O)N[C@@H](CCCCNC(=O)CC[C@H](NC(=O)CC[C@H](NC(=O)COCCOCCNC(=O)COCCOCCNC(=O)CC[C@H](NC(=O)CCCCCCCCCCCCCCCCC(=O)O)C(=O)O)C(=O)O)C(=O)O)C(=O)N[C@H](C(=O)N1CCC[C@H]1C(=O)O)[C@@H](C)O)C(C)C [Example 82, N^ε28-[(4S)-4-carboxy-4-[[(4S)-4-carboxy-4-[[2-[2-[2-[[2-[2-[2-[[(4S)-4-carboxy-4-(17-carboxyheptadecanoylamino)butanoyl]amino]ethoxy]ethoxy]acetyl]amino]ethoxy]ethoxy]acetyl]amino]butanoyl]amino]butanoyl]-[Leu^27,Lys^28]-Glucagonyl-Pro]",0.128 nM
2,CC(C)C[C@H](NC(=O)[C@H](Cc1ccc(O)cc1)NC(=O)[C@H](CCCCN)NC(=O)[C@H](CO)NC(=O)[C@H](Cc1ccc(O)cc1)NC(=O)[C@H](CC(=O)O)NC(=O)[C@H](CO)NC(=O)[C@@H](NC(=O)[C@H](Cc1ccccc1)NC(=O)[C@@H](NC(=O)CNC(=O)[C@H](CCC(N)=O)NC(=O)[C@H](CO)NC(=O)[C@@H](N)Cc1c[nH]cn1)[C@@H](C)O)[C@@H](C)O)C(=O)N[C@@H](CC(=O)O)C(=O)N[C@@H](CO)C(=O)N[C@@H](CCCNC(=N)N)C(=O)N[C@@H](CCCCNC(=O)COCCOCCNC(=O)COCCOCCNC(=O)CC[C@H](NC(=O)CCCCCCCCCCCCCCCCC(=O)O)C(=O)O)C(=O)N[C@@H](C)C(=O)N[C@@H](CCC(N)=O)C(=O)N[C@@H](CC(=O)O)C(=O)N[C@@H](Cc1ccccc1)C(=O)N[C@H](C(=O)N[C@@H](CCC(N)=O)C(=O)N[C@@H](Cc1c[nH]c2ccccc12)C(=O)N[C@@H](CC(C)C)C(=O)N[C@@H](CC(C)C)C(=O)N[C@@H](CC(N)=O)C(=O)N[C@H](C(=O)O)[C@@H](C)O)C(C)C [Example 18] (H-HSQGTFTSDYSKYLDSRK([AEEA-AEEA-γGlu-C18 diacid])AQDFVQWLLNT-OH; N-terminus and C-terminus assumed),0.206 nM
3,"CC(C)C[C@H](NC(=O)[C@H](Cc1ccc(O)cc1)NC(=O)[C@H](CCCCN)NC(=O)[C@H](CO)NC(=O)[C@H](Cc1ccc(O)cc1)NC(=O)[C@H](CC(=O)O)NC(=O)[C@H](CO)NC(=O)[C@@H](NC(=O)[C@H](Cc1ccccc1)NC(=O)[C@@H](NC(=O)CNC(=O)[C@H](CCC(N)=O)NC(=O)[C@H](CO)NC(=O)[C@@H](N)Cc1c[nH]cn1)[C@@H](C)O)[C@@H](C)O)C(=O)N[C@@H](CC(=O)O)C(=O)N[C@@H](CO)C(=O)N[C@@H](CCCNC(=N)N)C(=O)N[C@@H](CCCNC(=N)N)C(=O)N[C@@H](C)C(=O)N[C@@H](CCC(=O)O)C(=O)N[C@@H](CC(=O)O)C(=O)N[C@@H](Cc1ccccc1)C(=O)N[C@H](C(=O)N[C@@H](CCCCNC(=O)CC[C@H](NC(=O)CC[C@H](NC(=O)COCCOCCNC(=O)COCCOCCNC(=O)CC[C@H](NC(=O)CCCCCCCCCCCCCCCCC(=O)O)C(=O)O)C(=O)O)C(=O)O)C(=O)N[C@@H](Cc1c[nH]c2ccccc12)C(=O)N[C@@H](CC(C)C)C(=O)N[C@@H](CC(C)C)C(=O)N[C@@H](CO)C(=O)N[C@H](C(=O)O)[C@@H](C)O)C(C)C [Example 101, N^ε24-[(4S)-4-carboxy-4-[[(4S)-4-carboxy-4-[[2-[2-[2-[[2-[2-[2-[[(4S)-4-carboxy-4-(17-carboxyheptadecanoylamino)butanoyl]amino]ethoxy]ethoxy]acetyl]amino]ethoxy]ethoxy]acetyl]amino]butanoyl]amino]butanoyl]-[Glu^20,Lys^24,Leu^27,Ser^28]-Glucagon]",0.307 nM

# Stronger by EC50, values ahead:
row,EC50,SMILES
1,0.012 nM,"CC(C)C[C@H](NC(=O)[C@H](Cc1ccc(O)cc1)NC(=O)[C@H](CCCCN)NC(=O)[C@H](CO)NC(=O)[C@H](Cc1ccc(O)cc1)NC(=O)[C@H](CC(=O)O)NC(=O)[C@H](CO)NC(=O)[C@@H](NC(=O)[C@H](Cc1ccccc1)NC(=O)[C@@H](NC(=O)CNC(=O)[C@H](CCC(N)=O)NC(=O)[C@H](CO)NC(=O)[C@@H](N)Cc1c[nH]cn1)[C@@H](C)O)[C@@H](C)O)C(=O)N[C@@H](CC(=O)O)C(=O)N[C@@H](CO)C(=O)N[C@@H](CCCCN)C(=O)N[C@@H](CCCNC(=N)N)C(=O)N[C@@H](C)C(=O)N[C@@H](CCC(N)=O)C(=O)N[C@@H](CCC(=O)O)C(=O)N[C@@H](Cc1ccccc1)C(=O)N[C@H](C(=O)N[C@@H](CCC(N)=O)C(=O)N[C@@H](CCCCNC(=O)COCCOCCNC(=O)COCCOCCNC(=O)CC[C@H](NC(=O)CCCCCCCCCCCCCCCCC(=O)O)C(=O)O)C(=O)N[C@@H](CC(C)C)C(=O)N[C@@H](CC(C)C)C(=O)N[C@@H](CC(N)=O)C(=O)N[C@H](C(N)=O)[C@@H](C)O)C(C)C [Example 44, N^ε25 ([2-[2-[2-[[2-[2-[2-[[(4S)-5-hydroxy-4-[(18-hydroxy-18-oxooctadecanoyl)amino]-5-oxopentanoyl]amino]ethoxy]ethoxy]acetyl]amino]ethoxy]ethoxy]acetyl]) [Lys^17, Glu^21, Lys^25 Leu^27] Glucagon peptide amide] (H-HSQGTFTSDYSKYLDSKRAQEFVQK([AEEA-AEEA-γGlu-C18 diacid])LLNT-NH2; N-terminus assumed)"
2,0.043 nM,"CC(C)C[C@H](NC(=O)[C@H](Cc1ccc(O)cc1)NC(=O)[C@H](CCCCN)NC(=O)[C@H](CO)NC(=O)[C@H](Cc1ccc(O)cc1)NC(=O)[C@H](CC(=O)O)NC(=O)[C@H](CO)NC(=O)[C@@H](NC(=O)[C@H](Cc1ccccc1)NC(=O)[C@@H](NC(=O)CNC(=O)[C@H](CCC(N)=O)NC(=O)[C@H](CO)NC(=O)[C@@H](N)Cc1c[nH]cn1)[C@@H](C)O)[C@@H](C)O)C(=O)N[C@@H](CC(=O)O)C(=O)N[C@@H](CO)C(=O)N[C@@H](CCCNC(=N)N)C(=O)N[C@@H](CCCNC(=N)N)C(=O)N[C@@H](C)C(=O)N[C@@H](CCC(N)=O)C(=O)N[C@@H](CCC(=O)O)C(=O)N[C@@H](Cc1ccccc1)C(=O)N[C@H](C(=O)N[C@@H](CCCCNC(=O)COCCOCCNC(=O)COCCOCCNC(=O)CC[C@H](NC(=O)CCCCCCCCCCCCCCCCC(=O)O)C(=O)O)C(=O)N[C@@H](CCCNC(=N)N)C(=O)N[C@@H](CC(C)C)C(=O)N[C@@H](CC(C)C)C(=O)N[C@@H](CC(N)=O)C(=O)N[C@H](C(N)=O)[C@@H](C)O)C(C)C [Example 31, N^ε24-([2-[2-[2-[[2-[2-[2-[[(4S)-5-hydroxy-4-[(18-hydroxy-18-oxooctadecanoyl)amino]-5-oxopentanoyl]amino]ethoxy]ethoxy]acetyl]amino]ethoxy]ethoxy]acetyl])[Glu^21, Lys^24, Arg25 Leu^27,]Glucagon peptide amide]"
